Legend:
H2228 = experiment: CCK-8 proliferation, NCI-H2228 (H2228); assay type: cell-based; conditions: Homo sapiens, NCI-H2228; Table B6, compounds designed based on the ALK inhibitors; H2228 cells; read-out: Inhibitory activity (IC50, nM) on tumor cell proliferation, H2228
Procedure, shortened: (§1)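 Cells seeded, then after 24 h treated with 10 concentrations (top 10 µM, 5-fold serial dilution) for a line-specific time at 37°C, 5% CO2. Viability read by CCK-8; IC50 fitted from growth-inhibition curves.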

MCF7 = experiment: CCK-8 proliferation, MCF7 (MCF-7); assay type: cell-based; conditions: Homo sapiens, MCF7; Table B6, compounds designed based on the ALK inhibitors; MCF-7 cells; read-out: Inhibitory activity (IC50, nM) on tumor cell proliferation, MCF-7
Procedure, shortened: as §1

SR = experiment: CCK-8 proliferation, SR; assay type: cell-based, Human; conditions: Homo sapiens; Table B6, compounds designed based on the ALK inhibitors; SR cells; read-out: Inhibitory activity (IC50, nM) on tumor cell proliferation, SR
Procedure, shortened: as §1

MM.1S = experiment: CCK-8 proliferation, MM.1S; assay type: cell-based; conditions: Homo sapiens, MM1.S; Table B6, compounds designed based on the ALK inhibitors; MM.1S cells; read-out: Inhibitory activity (IC50, nM) on tumor cell proliferation, MM.1S
Procedure, shortened: as §1

ALK = molecular target: T1, ALK (Homo sapiens, UniProt Q96SW2+Q9HC35+Q9UM73); experiment: Western blot degradation of ALK (H2228 Cell); assay type: cell-based; conditions: Table D5
T1 construct: evaluate the effects of the compounds of the present disclosure on the expression of target proteins in cells; endogenous in cells; host or cells: H2228
Procedure, shortened: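 Quantification by ImageJ densitometry of Western blot bands: DC50 is the fitted concentration halving band intensity relative to DMSO. Percent remaining uses internal-control normalization, and degradation rate is its complement.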

WEE1 = molecular target: T2, WEE1 (Homo sapiens, UniProt P30291+Q96SW2); experiment: Western blot degradation of WEE1 (hPBMC); assay type: cell-based; conditions: Table D16
T2 construct: evaluate the effects of the compounds of the present disclosure on the expression of target proteins in cells; endogenous in cells; host or cells: hPBMC
Method: (§2) Conventional Western blot assay was performed to evaluate the effects of the compounds of the present disclosure on the expression of target proteins in cells.
(§3) (1) Cell Seeding and Protein Harvesting: The selected cells were processed according to the cell seeding procedure and protein harvesting procedure in Table III-2. Table III-2 Cell Seeding and Protein Harvesting Procedures
(§4) (2) To the collected supernatant, 5X SDS sample loading buffer was added, followed by denaturation at 95°C for 5 minutes. The denatured samples were then separated by SDS-PAGE electrophoresis on a polyacrylamide gel. Proteins were transferred to a nitrocellulose membrane (0.45 µm NC membrane), blocked with blocking buffer at room temperature for 1 hour, and subjected to antibody incubation and development procedures according to the antibody manufacturer's instructions (Cell Signaling Technology).
(§5) Half-Maximal Degradation Concentration value (the drug concentration required for degrading proteins by 50%, abbreviated as DC50) reads method: comparing the grayscale values of Western blot bands from drug-treated samples with those from blank DMSO-treated controls, and identifying the drug concentration range at which the grayscale value is half that of the DMSO-treated control bands.
(§6) DC50 values can be calculated using ImageJ software to measure grayscale values of Western blot bands from drug-treated samples. The concentration-response curve is fitted to estimate the drug concentration corresponding to half the grayscale value.
(§7) Target protein remaining (%) refers to the percentage of target protein remaining in hPBMC cells after treatment with protein degrader compounds.
(§8) Calculation method for target protein remaining (%): Use ImageJ software to measure grayscale values of Western blot bands from drug (protein degrader)-treated samples. The grayscale value of drug-treated bands is divided by that of internal control protein bands, and the resulting quotient is normalized to obtain the relative percentage of remaining target protein after protein degrader treatment.
(§9) Target protein degradation rate (%) = 100% - target protein remaining (%).

IKZF1 = molecular target: T3, IKZF1 (Homo sapiens, UniProt Q13422+Q96SW2); experiment: Western blot degradation of IKZF1 (hPBMC); assay type: cell-based; conditions: Table D16
T3 construct: evaluate the effects of the compounds of the present disclosure on the expression of target proteins in cells; endogenous in cells; host or cells: hPBMC
Method: as §2, §3, §4, §5, §6, §7, §8, §9

IKZF2 = molecular target: T4, IKZF2 (Homo sapiens, UniProt Q96SW2+Q9UKS7); experiment: Western blot degradation of IKZF2 (hPBMC); assay type: cell-based; conditions: Table D16
T4 construct: evaluate the effects of the compounds of the present disclosure on the expression of target proteins in cells; endogenous in cells; host or cells: hPBMC
Method: as §2, §3, §4, §5, §6, §7, §8, §9

IKZF3 = molecular target: T5, IKZF3 (Homo sapiens, UniProt Q96SW2+Q9UKT9); experiment: Western blot degradation of IKZF3 (hPBMC); assay type: cell-based; conditions: Table D16
T5 construct: evaluate the effects of the compounds of the present disclosure on the expression of target proteins in cells; endogenous in cells; host or cells: hPBMC
Method: as §2, §3, §4, §5, §6, §7, §8, §9

CK1a = molecular target: T6, CK1a (Homo sapiens, UniProt P48729+Q96SW2); experiment: Western blot degradation of CK1a (hPBMC); assay type: cell-based; conditions: Table D16
T6 construct: evaluate the effects of the compounds of the present disclosure on the expression of target proteins in cells; endogenous in cells; host or cells: hPBMC
Method: as §2, §3, §4, §5, §6, §7, §8, §9

GSPT1 = molecular target: T7, GSPT1 (Homo sapiens, UniProt P15170+Q96SW2); experiment: Western blot degradation of GSPT1 (hPBMC); assay type: cell-based; conditions: Table D16
T7 construct: evaluate the effects of the compounds of the present disclosure on the expression of target proteins in cells; endogenous in cells; host or cells: hPBMC
Method: as §2, §3, §4, §5, §6, §7, §8, §9

H1975 = experiment: CCK-8 proliferation, NCI-H1975 (H1975); assay type: cell-based, Human; conditions: Homo sapiens, NCI-H1975; Table B6, compounds designed based on the ALK inhibitors; H1975 cells; read-out: Inhibitory activity (IC50, nM) on tumor cell proliferation, H1975
Procedure, shortened: as §1

[1] = molecular target: T8, human Cereblon WT GST-tagged protein (Homo sapiens, UniProt Q96SW2); experiment: CRBN binding, HTRF (CEREBLON BINDING kit); conditions: Table II-2, CRBN binding screening, HTRF; for inhibition at 0.5 µM: read-out: Inhibition rate (%) at 0.5µM; for inhibition at 2 µM: read-out: Inhibition rate (%) at 2 µM
T8 construct: purchased CISBIO 64BDCRBNPEH
Procedure, shortened: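 After 3 h at room temperature, emission at 665 and 620 nm was measured in a homogeneous time-resolved fluorescence format. Compounds competed with a Thalidomide-Re probe for GST-tagged wild-type human CRBN, which was labelled with a Eu anti-GST antibody.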

T7 sequence (P15170 whole entry): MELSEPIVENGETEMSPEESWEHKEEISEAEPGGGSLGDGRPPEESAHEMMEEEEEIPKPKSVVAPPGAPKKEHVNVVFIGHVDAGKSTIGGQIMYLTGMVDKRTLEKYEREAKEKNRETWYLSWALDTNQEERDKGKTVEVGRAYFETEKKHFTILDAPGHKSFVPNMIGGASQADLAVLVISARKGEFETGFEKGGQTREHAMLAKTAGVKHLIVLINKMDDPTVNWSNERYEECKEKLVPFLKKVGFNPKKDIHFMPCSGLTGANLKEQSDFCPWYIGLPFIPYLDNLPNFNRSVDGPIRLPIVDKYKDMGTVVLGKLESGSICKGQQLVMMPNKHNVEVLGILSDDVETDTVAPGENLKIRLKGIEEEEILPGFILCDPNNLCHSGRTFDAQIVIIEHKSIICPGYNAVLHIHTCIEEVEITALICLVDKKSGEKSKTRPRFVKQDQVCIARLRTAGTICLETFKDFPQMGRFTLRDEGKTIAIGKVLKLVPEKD
T7 sequence (Q96SW2 whole entry): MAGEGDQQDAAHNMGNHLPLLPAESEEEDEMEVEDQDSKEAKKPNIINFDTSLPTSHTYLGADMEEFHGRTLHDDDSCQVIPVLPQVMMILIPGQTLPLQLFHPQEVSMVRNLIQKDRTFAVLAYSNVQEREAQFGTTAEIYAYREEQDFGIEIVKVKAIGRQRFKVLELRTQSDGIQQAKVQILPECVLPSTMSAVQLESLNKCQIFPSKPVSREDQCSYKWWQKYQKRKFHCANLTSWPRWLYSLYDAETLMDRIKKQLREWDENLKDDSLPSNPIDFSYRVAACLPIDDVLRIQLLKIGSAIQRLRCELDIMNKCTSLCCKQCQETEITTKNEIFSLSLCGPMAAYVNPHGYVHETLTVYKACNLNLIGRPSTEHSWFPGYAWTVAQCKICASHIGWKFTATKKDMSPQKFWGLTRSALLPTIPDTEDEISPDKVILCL
T7 sequence (Q16531 whole entry partner): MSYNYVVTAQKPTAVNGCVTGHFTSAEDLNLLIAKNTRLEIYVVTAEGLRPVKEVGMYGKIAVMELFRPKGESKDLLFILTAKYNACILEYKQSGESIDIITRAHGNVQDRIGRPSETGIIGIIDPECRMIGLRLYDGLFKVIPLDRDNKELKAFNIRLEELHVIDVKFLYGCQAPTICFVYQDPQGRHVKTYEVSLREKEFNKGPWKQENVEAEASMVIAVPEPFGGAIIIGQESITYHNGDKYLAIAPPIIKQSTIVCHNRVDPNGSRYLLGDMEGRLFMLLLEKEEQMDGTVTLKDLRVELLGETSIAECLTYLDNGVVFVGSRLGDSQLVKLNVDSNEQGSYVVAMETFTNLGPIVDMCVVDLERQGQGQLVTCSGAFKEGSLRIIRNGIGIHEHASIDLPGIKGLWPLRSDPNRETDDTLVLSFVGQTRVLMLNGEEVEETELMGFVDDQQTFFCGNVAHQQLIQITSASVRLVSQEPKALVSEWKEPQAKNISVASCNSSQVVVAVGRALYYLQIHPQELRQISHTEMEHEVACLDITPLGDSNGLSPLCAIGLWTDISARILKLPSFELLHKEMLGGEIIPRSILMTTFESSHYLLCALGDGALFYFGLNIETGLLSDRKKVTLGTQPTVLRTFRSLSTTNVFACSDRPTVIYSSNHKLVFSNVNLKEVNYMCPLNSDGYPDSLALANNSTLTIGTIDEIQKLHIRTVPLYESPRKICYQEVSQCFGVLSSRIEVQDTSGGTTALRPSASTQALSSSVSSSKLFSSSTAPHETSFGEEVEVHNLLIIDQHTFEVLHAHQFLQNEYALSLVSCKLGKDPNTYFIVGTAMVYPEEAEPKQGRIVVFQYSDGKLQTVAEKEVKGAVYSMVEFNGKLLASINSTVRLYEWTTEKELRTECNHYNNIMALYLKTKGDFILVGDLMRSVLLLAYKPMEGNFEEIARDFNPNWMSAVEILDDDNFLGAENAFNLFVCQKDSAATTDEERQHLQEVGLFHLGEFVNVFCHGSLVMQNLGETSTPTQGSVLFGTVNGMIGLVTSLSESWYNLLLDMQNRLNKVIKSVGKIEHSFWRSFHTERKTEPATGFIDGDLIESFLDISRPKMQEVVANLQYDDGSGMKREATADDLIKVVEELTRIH
T3 sequence (Q13422 whole entry): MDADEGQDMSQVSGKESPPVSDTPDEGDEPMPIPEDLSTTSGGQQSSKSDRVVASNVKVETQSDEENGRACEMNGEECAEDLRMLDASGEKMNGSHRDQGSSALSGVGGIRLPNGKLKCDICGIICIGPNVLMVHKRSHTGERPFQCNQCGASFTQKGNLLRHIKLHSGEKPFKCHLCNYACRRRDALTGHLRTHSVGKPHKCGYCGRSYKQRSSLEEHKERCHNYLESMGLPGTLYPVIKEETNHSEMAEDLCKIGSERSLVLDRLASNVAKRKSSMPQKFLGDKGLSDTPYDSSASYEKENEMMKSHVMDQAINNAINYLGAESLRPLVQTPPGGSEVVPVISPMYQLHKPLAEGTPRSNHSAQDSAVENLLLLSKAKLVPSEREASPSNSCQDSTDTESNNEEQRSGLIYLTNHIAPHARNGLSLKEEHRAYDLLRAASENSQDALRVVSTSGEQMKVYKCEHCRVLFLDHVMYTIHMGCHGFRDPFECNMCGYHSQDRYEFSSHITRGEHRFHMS
T3 sequence (Q96SW2 whole entry): as the sequence (Q96SW2 whole entry) above
T3 sequence (Q16531 whole entry partner): as the sequence (Q16531 whole entry partner) above
T5 sequence (Q9UKT9 whole entry): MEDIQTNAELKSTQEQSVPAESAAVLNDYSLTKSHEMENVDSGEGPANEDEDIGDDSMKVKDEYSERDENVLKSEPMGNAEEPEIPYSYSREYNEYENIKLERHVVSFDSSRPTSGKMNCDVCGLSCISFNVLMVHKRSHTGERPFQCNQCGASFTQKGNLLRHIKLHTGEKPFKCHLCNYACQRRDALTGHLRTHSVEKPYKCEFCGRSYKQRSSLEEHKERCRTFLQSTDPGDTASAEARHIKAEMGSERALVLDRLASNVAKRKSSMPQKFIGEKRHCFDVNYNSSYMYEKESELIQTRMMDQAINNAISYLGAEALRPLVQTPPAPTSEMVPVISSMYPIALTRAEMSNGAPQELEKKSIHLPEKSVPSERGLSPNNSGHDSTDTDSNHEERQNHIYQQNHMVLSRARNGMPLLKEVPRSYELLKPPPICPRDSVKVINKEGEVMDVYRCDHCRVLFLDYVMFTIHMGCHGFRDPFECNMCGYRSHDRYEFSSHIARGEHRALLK
T5 sequence (Q96SW2 whole entry): as the sequence (Q96SW2 whole entry) above
T5 sequence (Q16531 whole entry partner): as the sequence (Q16531 whole entry partner) above
T8 sequence (Q96SW2 whole entry): as the sequence (Q96SW2 whole entry) above
T6 sequence (P48729 whole entry): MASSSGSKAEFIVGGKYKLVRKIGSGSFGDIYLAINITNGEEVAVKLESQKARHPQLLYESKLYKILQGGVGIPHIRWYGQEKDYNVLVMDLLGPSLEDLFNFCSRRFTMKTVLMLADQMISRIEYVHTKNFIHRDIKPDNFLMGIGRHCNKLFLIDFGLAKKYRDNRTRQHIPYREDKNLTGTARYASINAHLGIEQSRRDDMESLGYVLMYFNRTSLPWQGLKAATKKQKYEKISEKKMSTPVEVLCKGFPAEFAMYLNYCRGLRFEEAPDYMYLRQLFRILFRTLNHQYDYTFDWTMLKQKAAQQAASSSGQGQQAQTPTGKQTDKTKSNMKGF
T6 sequence (Q96SW2 whole entry): as the sequence (Q96SW2 whole entry) above
T6 sequence (Q16531 whole entry partner): as the sequence (Q16531 whole entry partner) above
T4 sequence (Q9UKS7 whole entry): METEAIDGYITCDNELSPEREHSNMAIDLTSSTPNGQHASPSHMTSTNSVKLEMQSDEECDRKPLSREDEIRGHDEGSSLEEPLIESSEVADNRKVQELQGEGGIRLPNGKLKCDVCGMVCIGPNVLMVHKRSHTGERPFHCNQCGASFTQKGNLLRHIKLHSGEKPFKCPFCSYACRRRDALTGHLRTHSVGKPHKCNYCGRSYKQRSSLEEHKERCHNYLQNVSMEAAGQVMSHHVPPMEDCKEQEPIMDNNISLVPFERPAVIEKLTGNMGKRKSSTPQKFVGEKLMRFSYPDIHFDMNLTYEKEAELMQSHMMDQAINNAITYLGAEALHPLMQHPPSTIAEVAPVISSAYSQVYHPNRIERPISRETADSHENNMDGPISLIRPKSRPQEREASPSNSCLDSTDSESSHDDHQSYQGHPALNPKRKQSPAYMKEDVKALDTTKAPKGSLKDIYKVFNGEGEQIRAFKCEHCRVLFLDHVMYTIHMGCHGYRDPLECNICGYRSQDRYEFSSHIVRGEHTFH
T4 sequence (Q96SW2 whole entry): as the sequence (Q96SW2 whole entry) above
T4 sequence (Q16531 whole entry partner): as the sequence (Q16531 whole entry partner) above

Structure (SMILES) | IC50 (H2228) [nM] | IC50 (MCF7) [nM] | IC50 (MM.1S) [nM] | IC50 (H1975) [nM] | inhibition at 0.5 µM [1] [%] | inhibition at 2 µM [1] [%] | IC50 (SR) [nM] | Degradation of substrate protein ALK (substrate protein remaining %) (ALK) | Degradation of substrate protein WEE1 (substrate protein remaining %) (WEE1) | Degradation of substrate protein IKZF1 (substrate protein remaining %) (IKZF1) | Degradation of substrate protein IKZF2 (substrate protein remaining %) (IKZF2) | Degradation of substrate protein IKZF3 (substrate protein remaining %) (IKZF3) | Degradation of substrate protein CKla (substrate protein remaining %) (CK1a) | Degradation of substrate protein GSPT1 (substrate protein remaining %) (GSPT1)
O=C1CCC(Nc2cnccc2CO)C(=O)N1 (stereo not drawn) [GT-07559, 3-((4-(Hydroxymethyl)pyridin-3-yl)amino)piperidine-2,6-dione] |  |  |  |  |  |  |  |  | A (A is defined as 0% ≤ substrate protein remaining % ≤ 80%) | A (A is defined as 0% ≤ substrate protein remaining % ≤ 80%) | A (A is defined as 0% ≤ substrate protein remaining % ≤ 80%) | A (A is defined as 0% ≤ substrate protein remaining % ≤ 80%) | A (A is defined as 0% ≤ substrate protein remaining % ≤ 80%) | A (A is defined as 0% ≤ substrate protein remaining % ≤ 80%)
CC(C)(C)[Si](C)(C)OCc1cncc(NC2CCC(=O)NC2=O)c1 (stereo not drawn) [GT-07449, 3-((5-(((tert-Butyldimethylsilyl)oxy)methyl)pyridin-3-yl)amino)piperidine-2,6-dione] |  |  |  |  |  |  |  |  | B (B is defined as substrate protein remaining % > 80%) | B (B is defined as substrate protein remaining % > 80%) | A (A is defined as 0% ≤ substrate protein remaining % ≤ 80%) | B (B is defined as substrate protein remaining % > 80%) | B (B is defined as substrate protein remaining % > 80%) | B (B is defined as substrate protein remaining % > 80%)
O=C1CCC(c2ccc(CO)nc2)C(=O)N1 (stereo not drawn) [GT-07010, 3-(6-(Hydroxymethyl)pyridin-3-yl)piperidine-2,6-dione] |  |  |  |  |  |  |  |  | B (B is defined as substrate protein remaining % > 80%) | B (B is defined as substrate protein remaining % > 80%) | B (B is defined as substrate protein remaining % > 80%) | A (A is defined as 0% ≤ substrate protein remaining % ≤ 80%) | A (A is defined as 0% ≤ substrate protein remaining % ≤ 80%) | A (A is defined as 0% ≤ substrate protein remaining % ≤ 80%)
O=Cc1ccncc1NC1CCC(=O)NC1=O (stereo not drawn) [GT-07804, 3-((2,6-Dioxopiperidin-3-yl)amino)isonicotinaldehyde] |  |  |  |  |  |  |  |  | B (B is defined as substrate protein remaining % > 80%) | B (B is defined as substrate protein remaining % > 80%) | A (A is defined as 0% ≤ substrate protein remaining % ≤ 80%) | A (A is defined as 0% ≤ substrate protein remaining % ≤ 80%) | B (B is defined as substrate protein remaining % > 80%) | B (B is defined as substrate protein remaining % > 80%)
CCc1cc2c(cc1N1CCC(N3CCN(Cc4ccc(C5CCC(=O)NC5=O)cc4)CC3)CC1)C(C)(C)c1[nH]c3cc(C#N)ccc3c1C2=O (stereo not drawn) [GT-03762, 8-(4-(4-(4-(2,6-dioxopiperidin-3-yl)benzyl)piperazin-1-yl)piperidin-1-yl)-9-ethyl-6,6-dimethyl-11-oxo-6,11-dihydro-5H-benzo[b]carbazole-3-carbonitrile] |  |  | 500 to 1000 |  | 40 to 53 | 60 to 80 | 1 to 10 | A (A is defined as 0% ≤ substrate protein remaining % ≤ 80%) |  |  |  |  |  | 

More lines, main results first:

IC50 (H2228) [nM] | IC50 (MCF7) [nM] | IC50 (MM.1S) [nM] | IC50 (H1975) [nM] | inhibition at 0.5 µM [1] [%] | inhibition at 2 µM [1] [%] | Structure (SMILES) | IC50 (SR) [nM] | Degradation of substrate protein ALK (substrate protein remaining %) (ALK) | Degradation of substrate protein WEE1 (substrate protein remaining %) (WEE1) | Degradation of substrate protein IKZF1 (substrate protein remaining %) (IKZF1) | Degradation of substrate protein IKZF2 (substrate protein remaining %) (IKZF2) | Degradation of substrate protein IKZF3 (substrate protein remaining %) (IKZF3) | Degradation of substrate protein CKla (substrate protein remaining %) (CK1a) | Degradation of substrate protein GSPT1 (substrate protein remaining %) (GSPT1)
50 to 100 | 100 to 500 | 500 to 1000 |  |  |  | Cc1cc(Nc2ncc(Cl)c(Nc3ccccc3S(=O)(=O)C(C)C)n2)c(OC(C)C)cc1C1CCN(Cc2ccc(C3CCC(=O)NC3=O)cn2)CC1 (stereo not drawn) [GT-07600, 3-(6-((4-(4-((5-chloro-4-((2-(isopropylsulfonyl)phenyl)amino)pyrimidin-2-yl)amino)-5-isopropoxy-2-methylphenyl)piperidin-1-yl)methyl)pyridin-3-yl)piperidine-2,6-dione] | 10 to 50 | A (A is defined as 0% ≤ substrate protein remaining % ≤ 80%) |  |  |  |  |  | 
10 to 50 | 100 to 500 | 500 to 1000 | 100 to 500 |  |  | COc1cc(N2CCC(N(C)Cc3ccnc(N4CCC(=O)NC4=O)c3)CC2)ccc1Nc1ncc(Cl)c(Nc2ccccc2P(C)(C)=O)n1 [GT-07694, 1-(4-(((1-(4-((5-chloro-4-((2-(dimethylphosphoryl)phenyl)amino)pyrimidin-2-yl)amino)-3-methoxyphenyl)piperidin-4-yl)(methyl)amino)methyl)pyridin-2-yl)dihydropyrimidine-2,4(1H,3H)-dione] | 1 to 10 | A (A is defined as 0% ≤ substrate protein remaining % ≤ 80%) |  |  |  |  |  | 
 |  | 100 to 500 |  | 40 to 53 | 53 to 60 | CCc1cc2c(cc1N1CCC(N3CCN(Cc4ccc(C5CCC(=O)NC5=O)c(F)c4)CC3)CC1)C(C)(C)c1[nH]c3cc(C#N)ccc3c1C2=O (stereo not drawn) [GT-03763, 8-(4-(4-(4-(2,6-dioxopiperidin-3-yl)-3-fluorobenzyl)piperazin-1-yl)piperidin-1-yl)-9-ethyl-6,6-dimethyl-11-oxo-6,11-dihydro-5H-benzo[b]carbazole-3-carbonitrile] | 1 to 10 | A (A is defined as 0% ≤ substrate protein remaining % ≤ 80%) |  |  |  |  |  | 
100 to 500 |  | 500 to 1000 |  |  |  | CCc1cc2c(cc1N1CCN(Cc3ccc(C4CCC(=O)NC4=O)cc3)CC1)C(C)(C)c1[nH]c3cc(C#N)ccc3c1C2=O (stereo not drawn) [GT-07323, 8-(4-(4-(2,6-dioxopiperidin-3-yl)benzyl)piperazin-1-yl)-9-ethyl-6,6-dimethyl-11-oxo-6,11-dihydro-5H-benzo[b]carbazole-3-carbonitrile] | 1 to 10 | A (A is defined as 0% ≤ substrate protein remaining % ≤ 80%) |  |  |  |  |  | 
50 to 100 | 100 to 500 | 500 to 1000 |  |  |  | Cc1cc(Nc2ncc(Cl)c(Nc3ccccc3S(=O)(=O)C(C)C)n2)c(OC(C)C)cc1C1CCN(Cc2cccc(N3CCC(=O)NC3=O)c2)CC1 [GT-07593, 1-(3-((4-(4-((5-chloro-4-((2-(isopropylsulfonyl)phenyl)amino)pyrimidin-2-yl)amino)-5-isopropoxy-2-methylphenyl)piperidin-1-yl)methyl)phenyl)dihydropyr imidine-2,4(1H,3H)-dione] | 10 to 50 | A (A is defined as 0% ≤ substrate protein remaining % ≤ 80%) |  |  |  |  |  | 
